In ChEMBL document CHEMBL4308841, “Synthesis, in vitro antiproliferative activity, and kinase inhibitory effects of pyrazole-containing diarylureas and diarylamides” (Eur J Med Chem, 2018):

What was measured:
[1] = test system: DU-145; assay: Growth inhibition of human DU145 cells incubated for 48 hrs by sulforhodamine B assay; format: functional, cell-based; details: DU-145, 48 h
[2] = test system: NCI/ADR-RES; assay: Growth inhibition of human NCI/ADR-RES cells assessed as cell growth at 10 uM incubated for 48 hrs by sulforhodamine B assay relative to control; format: functional; details: read-out: Activity
[3] = test system: OVCAR-8; assay: Growth inhibition of human OVCAR8 cells assessed as cell growth at 10 uM incubated for 48 hrs by sulforhodamine B assay relative to control; format: functional; details: OVCAR-8, 48 h, read-out: Activity
[4] = test system: OVCAR-4; assay: Growth inhibition of human OVCAR4 cells assessed as cell growth at 10 uM incubated for 48 hrs by sulforhodamine B assay relative to control; format: functional; details: OVCAR-4, 48 h, read-out: Activity
[5] = test system: A549; assay: Growth inhibition of human A549/ATCC cells assessed as cell growth at 100 uM incubated for 48 hrs by sulforhodamine B assay relative to control; format: functional; details: A549, 48 h, read-out: Activity
[6] = test system: SW-620; assay: Growth inhibition of human SW620 cells assessed as cell growth at 10 uM incubated for 48 hrs by sulforhodamine B assay relative to control; format: functional; details: SW-620, 48 h, read-out: Activity
[7] = test system: LOX IMVI; assay: Growth inhibition of human LOXIMVI cells assessed as cell growth at 100 uM incubated for 48 hrs by sulforhodamine B assay relative to control; format: functional; details: read-out: Activity
[8] = test system: T47D; assay: Growth inhibition of human T47D cells incubated for 48 hrs by sulforhodamine B assay; format: functional, cell-based
[9] = test system: HOP-62; assay: Growth inhibition of human HOP62 cells assessed as cell growth at 10 uM incubated for 48 hrs by sulforhodamine B assay relative to control; format: functional; details: HOP-62, 48 h, read-out: Activity
[10] = test system: SF-268; assay: Growth inhibition of human SF268 cells assessed as cell growth at 10 uM incubated for 48 hrs by sulforhodamine B assay relative to control; format: functional; details: SF-268, 48 h, read-out: Activity
[11] = test system: DU-145; assay: Growth inhibition of human DU145 cells assessed as cell growth at 100 uM incubated for 48 hrs by sulforhodamine B assay relative to control; format: functional; details: DU-145, 48 h, read-out: Activity
[12] = test system: CCRF-CEM; assay: Growth inhibition of human CCRF-CEM cells assessed as cell growth at 0.1 uM incubated for 48 hrs by sulforhodamine B assay relative to control; format: functional; details: read-out: Activity
[13] = test system: OVCAR-3; assay: Growth inhibition of human OVCAR3 cells assessed as cell growth at 0.01 uM incubated for 48 hrs by sulforhodamine B assay relative to control; format: functional; details: OVCAR-3, 48 h, read-out: Activity
[14] = test system: COLO 205; assay: Growth inhibition of human COLO205 cells assessed as cell growth at 10 uM incubated for 48 hrs by sulforhodamine B assay relative to control; format: functional; details: COLO 205, 48 h, read-out: Activity
[15] = test system: Malme-3M; assay: Growth inhibition of human MALME-3M cells assessed as cell growth at 10 uM incubated for 48 hrs by sulforhodamine B assay relative to control; format: functional; details: read-out: Activity
[16] = test system: SK-MEL-28; assay: Growth inhibition of human SK-MEL-28 cells assessed as cell growth at 0.01 uM incubated for 48 hrs by sulforhodamine B assay relative to control; format: functional; details: SK-MEL-28, 48 h, read-out: Activity
[17] = test system: UACC-62; assay: Growth inhibition of human UACC62 cells assessed as cell growth at 10 uM incubated for 48 hrs by sulforhodamine B assay relative to control; format: functional; details: UACC-62, 48 h, read-out: Activity
[18] = test system: SN12C; assay: Growth inhibition of human SN12C cells assessed as cell growth at 10 uM incubated for 48 hrs by sulforhodamine B assay relative to control; format: functional; details: read-out: Activity
[19] = test system: SK-OV-3; assay: Growth inhibition of human SKOV3 cells assessed as cell growth at 10 uM incubated for 48 hrs by sulforhodamine B assay relative to control; format: functional; details: SK-OV-3, 48 h, read-out: Activity
[20] = test system: OVCAR-3; assay: Growth inhibition of human OVCAR3 cells assessed as cell growth at 10 uM incubated for 48 hrs by sulforhodamine B assay relative to control; format: functional; details: OVCAR-3, 48 h, read-out: Activity
[21] = test system: HCT-15; assay: Growth inhibition of human HCT15 cells assessed as cell growth at 10 uM incubated for 48 hrs by sulforhodamine B assay relative to control; format: functional; details: HCT-15, 48 h, read-out: Activity
[22] = test system: DU-145; assay: Growth inhibition of human DU145 cells assessed as cell growth at 10 uM incubated for 48 hrs by sulforhodamine B assay relative to control; format: functional; details: DU-145, 48 h, read-out: Activity
[23] = test system: U-251; assay: Growth inhibition of human U251 cells assessed as cell growth at 10 uM incubated for 48 hrs by sulforhodamine B assay relative to control; format: functional; details: U-251, 48 h, read-out: Activity
[24] = test system: NCI-H23; assay: Growth inhibition of human NCI-H23 cells assessed as cell growth at 10 uM incubated for 48 hrs by sulforhodamine B assay relative to control; format: functional; details: NCI-H23, 48 h, read-out: Activity
[25] = test system: K562; assay: Growth inhibition of human K562 cells assessed as cell growth at 10 uM incubated for 48 hrs by sulforhodamine B assay relative to control; format: functional; details: K562, 48 h, read-out: Activity
[26] = test system: Hs-578T; assay: Growth inhibition of human Hs578T cells assessed as cell growth at 10 uM incubated for 48 hrs by sulforhodamine B assay relative to control; format: functional; details: read-out: Activity
[27] = test system: IGROV-1; assay: Growth inhibition of human IGROV1 cells assessed as cell growth at 10 uM incubated for 48 hrs by sulforhodamine B assay relative to control; format: functional; details: IGROV-1, 48 h, read-out: Activity
[28] = test system: CAKI-1; assay: Growth inhibition of human Caki1 cells incubated for 48 hrs by sulforhodamine B assay; format: functional, cell-based; details: CAKI-1, 48 h
[29] = test system: MDA-MB-231; assay: Growth inhibition of human MDA-MB-231 cells assessed as cell growth at 10 uM incubated for 48 hrs by sulforhodamine B assay relative to control; format: functional; details: MDA-MB-231, 48 h, read-out: Activity
[30] = test system: RPMI-8226; assay: Growth inhibition of human RPMI8226 cells assessed as cell growth at 10 uM incubated for 48 hrs by sulforhodamine B assay relative to control; format: functional; details: RPMI-8226, 48 h, read-out: Activity
[31] = test system: NCI-H226; assay: Growth inhibition of human NCI-H226 cells incubated for 48 hrs by sulforhodamine B assay; format: functional, cell-based; details: NCI-H226, 48 h
[32] = read-out: LC50 (the source's name)
[33] = read-out: pLC50 (the source's name) (converted)

With `O=C(Nc1cccc(-n2cc(-c3ccncc3)c(-c3cc(O)cc(Cl)c3)n2)c1)Nc1ccc(Cl)c(C(F)(F)F)c1` the GI50 ([1]; read-out: GI50) was 3.77 µM, the CC50 [1, 32] was 55.8 µM and the TGI ([1]; read-out: TGI) was 11.7 µM. The GI50 ([1]; read-out: pGI50 (converted)) was 3.31 µM, the CC50 [1, 33] was 56.2 µM and the TGI ([1]; read-out: pTGI (converted)) was 11.7 µM. For the same compound, the growth at 10 µM [2] was 41.5%, the growth at 10 µM [3] was 3.69% and the growth at 10 µM [4] was 31.6%. It also gave a growth at 100 µM [5] of -45%, a growth at 10 µM [6] of -33.6% and a growth at 100 µM [7] of -89%. For the same compound, the GI50 ([8]; read-out: GI50) was 2.44 µM, the CC50 [8, 32] was 91.5 µM and the TGI ([8]; read-out: TGI) was 92.7 µM. The GI50 ([8]; read-out: pGI50 (converted)) was 2.45 µM, the CC50 [8, 33] was 91.2 µM and the TGI ([8]; read-out: pTGI (converted)) was 9.33 µM. It also gave a growth at 10 µM [9] of 8.99%, a growth at 10 µM [10] of 42.1% and a growth at 100 µM [11] of -68%. It also gave a growth at 0.1 µM [12] of 95%, a growth at 0.01 µM [13] of 101% and a growth at 10 µM [14] of 63.4%. The growth at 10 µM [15] was -24.9%, the growth at 0.01 µM [16] was 97% and the growth at 10 µM [17] was -1.44%. The growth at 10 µM [18] was 34.6%, the growth at 10 µM [19] was 63.1% and the growth at 10 µM [20] was 1.88%. It also gave a growth at 10 µM [21] of 5.79%, a growth at 10 µM [22] of 18.7% and a growth at 10 µM [23] of -26.5%. It also gave a growth at 10 µM [24] of 10.5%, a growth at 10 µM [25] of 5.24% and a growth at 10 µM [26] of 21.7%. The growth at 10 µM [27] was 30.6%, the GI50 ([28]; read-out: GI50) was 2.53 µM and the CC50 [28, 32] was greater than 100 µM. For the same compound, the TGI ([28]; read-out: TGI) was 78.7 µM, the GI50 ([28]; read-out: pGI50 (converted)) was 2.69 µM and the CC50 [28, 33] was greater than 100 µM. The TGI ([28]; read-out: pTGI (converted)) was 7.94 µM, the growth at 10 µM [29] was -47.3% and the growth at 10 µM [30] was 13.8%. The GI50 ([31]; read-out: GI50) was 2.47 µM, the LC50 ([31]; read-out: LC50) was greater than 100 µM and the TGI ([31]; read-out: TGI) was 89.6 µM. For the same compound, the GI50 ([31]; read-out: pGI50 (converted)) was 2.45 µM, the LC50 ([31]; read-out: pLC50 (converted)) was greater than 100 µM and the TGI ([31]; read-out: pTGI (converted)) was 8.91 µM.
